Test results taken from paper PMC5384001 (Scientific Reports, 2017).

Target: T1, GluD2-Lc(Y543Q)-(HS2)GluN1 (Rattus norvegicus, UniProt Q63226, A654T/A766F/D767R/N763E/R768S/T764L/V761T/V765F/Y543Q)
T1 construct: the function of full-length receptors as well, we introduced them into the GluD2 lurcher mutant (GluD2-Lc); expressed in transfected cells; host or cells: Xenopus laevis oocytes injected with cRNA
T1 sequence (Q63226 24-1007 Y543Q/A654T/V761T/N763E/T764L/V765F/A766F/D767R/R768S): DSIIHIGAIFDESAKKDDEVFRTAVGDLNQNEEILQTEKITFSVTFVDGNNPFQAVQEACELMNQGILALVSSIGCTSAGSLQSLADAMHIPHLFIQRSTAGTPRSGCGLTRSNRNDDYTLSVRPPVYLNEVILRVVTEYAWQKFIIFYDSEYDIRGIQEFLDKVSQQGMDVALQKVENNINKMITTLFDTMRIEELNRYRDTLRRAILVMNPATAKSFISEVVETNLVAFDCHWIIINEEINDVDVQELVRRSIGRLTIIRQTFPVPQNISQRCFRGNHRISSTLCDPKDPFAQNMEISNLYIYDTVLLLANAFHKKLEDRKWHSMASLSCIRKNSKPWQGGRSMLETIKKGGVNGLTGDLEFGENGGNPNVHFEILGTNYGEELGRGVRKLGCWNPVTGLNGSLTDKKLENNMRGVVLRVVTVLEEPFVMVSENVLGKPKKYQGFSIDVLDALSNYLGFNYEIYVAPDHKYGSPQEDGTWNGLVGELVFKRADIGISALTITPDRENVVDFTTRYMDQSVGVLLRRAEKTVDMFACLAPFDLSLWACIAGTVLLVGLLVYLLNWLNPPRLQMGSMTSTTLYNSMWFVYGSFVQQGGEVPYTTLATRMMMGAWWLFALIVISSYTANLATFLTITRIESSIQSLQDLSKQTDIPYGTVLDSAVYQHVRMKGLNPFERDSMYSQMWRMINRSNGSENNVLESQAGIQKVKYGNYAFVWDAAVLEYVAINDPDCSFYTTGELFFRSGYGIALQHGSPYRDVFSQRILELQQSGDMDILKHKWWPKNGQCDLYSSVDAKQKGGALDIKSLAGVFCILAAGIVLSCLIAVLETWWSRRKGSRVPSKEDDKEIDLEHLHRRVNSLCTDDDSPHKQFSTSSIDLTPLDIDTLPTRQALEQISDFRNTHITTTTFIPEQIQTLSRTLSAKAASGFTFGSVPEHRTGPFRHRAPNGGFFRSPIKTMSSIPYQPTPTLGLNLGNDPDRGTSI
Test: Two-electrode voltage clamp in Xenopus oocytes, inhibition of spontaneous currents
Format: cell-based
Details: fraction of spontaneous current inhibited by saturating D-serine

N[C@H](CO)C(=O)O [D-serine]
D-serine efficacy Mean ± SEM: 24.1 ± 0.4%
